Reference: ChEMBL document CHEMBL5136987, “Redesigning of the cap conformation and symmetry of the diphenylethyne core to yield highly potent pan-genotypic NS5A inhibitors with high potency and high resistance barrier” (Eur J Med Chem, 2022)
pEC50: −log10 of the molar value. Activity calls are given as the source filed them. No cut-off for these calls is given here.

Key:
Hepatitis C virus [1] = test: Antiviral activity against HCV GT-1b Con1 in human Huh-5-2 cells carrying HCV subgenomic replicon assessed as reduction of viral replication measured after 72 hrs by Firefly luciferase reporter gene assay; type: functional, organism-based, Hepacivirus hominis; conditions: subtype 1b Con1, Huh-5-2, 72 h
[2] = Cytotoxicity against human Huh-5-2 cells carrying HCV subgenomic replicon assessed as decrease in intracellular ATP level measured after 72 hrs by Glo-max luminescence based assay; type: toxicity, cell-based
[3] = Selectivity index, ratio of CC50 for cytotoxicity against human Huh-5-2 cells carrying HCV subgenomic replicon assessed as decrease in intracellular ATP level to EC50 for antiviral activity against HCV GT-1b Con1 in human Huh-5-2 cells carrying HCV subgenomic replicon assessed as reduction of viral replication; type: toxicity, cell-based; conditions: read-out: Ratio CC50/EC50
Hepatitis C virus [4] = test: Antiviral activity against HCV 3a S52 in human Huh7.5 cells carrying HCV subgenomic replicons assessed as inhibition of viral replication measured after 72 hrs by Firefly luciferase reporter gene assay; type: functional, organism-based, Hepacivirus hominis; conditions: subtype 3a S52, Huh7.5, 72 h
Hepatitis C virus [5] = test: Antiviral activity against HCV 2a JFH1 in human Huh-7 cells carrying HCV subgenomic replicon assessed as inhibition of viral replication measured after 72 hrs by Firefly luciferase reporter gene assay; type: functional, cell-based; conditions: 2a JFH1, Huh-7, 72 h
Hepatitis C virus [6] = test: Antiviral activity against HCV 4a ED43 in human Huh7.5 cells carrying HCV subgenomic replicon assessed as inhibition of viral replication measured after 72 hrs by Firefly luciferase reporter gene assay; type: functional, organism-based, Hepacivirus hominis; conditions: subtype 4a ED43, Huh7.5, 72 h
[7] = Metabolic stability in human S9 fraction assessed as half life at 10 mg/ml measured upto 120 mins in presence of NADP […] system by LC-MS/MS analysis; type: ADME, subcellular
[8] = Metabolic stability in human S9 fraction assessed as clearance at 10 mg/ml measured upto 120 mins in presence of NADP […] system by LC-MS/MS analysis; type: ADME, subcellular
Hepatitis C virus [9] = test: Antiviral activity against full length HCV GT-1a H77S.3 in human Huh-7-Lunet cells carrying HCV subgenomic replicon assessed as inhibition of viral replication measured after 72 hrs by Firefly luciferase reporter gene assay; type: functional, organism-based, Hepacivirus hominis; conditions: genotype 1a H77S.3, Huh-7, 72 h
Hepatitis C virus [10] = test: Antiviral activity against HCV GT-1b Con1 in human Huh-5-2 cells carrying HCV subgenomic replicon assessed as drug resistance upto 100X EC50 and measured after 30 passages in presence of G418 by NGS analysis; type: functional, organism-based, Hepacivirus hominis; conditions: subtype 1b Con1, Huh-5-2
Hepatitis C virus [11] = test: Antiviral activity against HCV GT-1b Con1 in human Huh-5-2 cells carrying HCV subgenomic replicon assessed as drug resistance upto 100X EC50 and measured after 15 weeks in presence of G418 by NGS analysis; type: functional, organism-based, Hepacivirus hominis; conditions: subtype 1b Con1, Huh-5-2
[12] = Selectivity index, ratio of EC50 for antiviral activity against HCV GT-1b Con1 in human Huh-5-2 cells carrying HCV subgenomic replicon assessed as drug resistance measured after 15weeks in presence of G418 by NGS analysis to EC50 for antiviral activity against HCV GT-1b Con1 in human Huh-5-2 cells carrying HCV subgenomic replicon assessed as drug resistance measured after 30 passages in presence of G418; type: functional, Hepatitis C virus subtype 1b
Hepatitis C virus [13] = test: Antiviral activity against HCV GT-1b Con1 infected in human Huh-5-2 cells carrying HCV subgenomic replicon assessed as reduction of viral replication by RT-qPCR analysis; type: functional, organism-based, Hepacivirus hominis; conditions: subtype 1b Con1, Huh-5-2
Hepatitis C virus [14] = test: Antiviral activity against HCV GT-1b Con1 infected in human Huh-5-2 cells carrying HCV subgenomic replicon assessed as reduction in NS5A protein level incubated at 3.3 to 30 pM by PI staining based indirect immunofluorescence assay; type: functional, organism-based; conditions: Hepacivirus hominis, subtype 1b Con1, dose 3.3-30 pM

SMILES | pEC50 (Hepatitis C virus [1]) | CC50 at 72 h [2] [nM] | selectivity ratio [3] | half-life at 10 mg/ml [7] [min] | also measured
CC(C)[C@H](NC(=O)OCc1ccccc1)C(=O)N1CCC[C@H]1C(=O)Nc1cccc(C#Cc2cccc(NC(=O)[C@@H]3CCCN3C(=O)[C@@H](NC(=O)OCc3ccccc3)C(C)C)c2)c1 | 6.00 | > 1000 |  |  | 
COC(=O)N[C@@H](CCSC)C(=O)N1CCC[C@H]1C(=O)Nc1cccc(C#Cc2cccc(NC(=O)[C@@H]3CCCN3C(=O)[C@H](CCSC)NC(=O)OC)c2)c1 | 9.87 | > 1000 | > 7350 |  | 
COC(=O)N[C@@H](CC(C)C)C(=O)N1CCC[C@H]1C(=O)Nc1cccc(C#Cc2cccc(NC(=O)[C@@H]3CCCN3C(=O)[C@H](CC(C)C)NC(=O)OC)c2)c1 | 9.87 | 54400 | 407000 |  | 
CCCCOC(=O)N[C@H](C(=O)N1CCC[C@H]1C(=O)Nc1cccc(C#Cc2cccc(NC(=O)[C@@H]3CCCN3C(=O)[C@@H](NC(=O)OCCCC)C(C)C)c2)c1)C(C)C | 6.24 | > 100000 | > 173 |  | 
COC(=O)N[C@@H](C(=O)N1CCC[C@H]1C(=O)Nc1ccc(C#Cc2ccc(NC(=O)[C@@H]3CCCN3C(=O)[C@H](NC(=O)OC)c3ccccc3)cc2)cc1)c1ccccc1 | 11.59 | 28200 |  | > 120 | pEC50 (Hepatitis C virus [4]): 9.50; pEC50 (Hepatitis C virus [5]): 9.83; pEC50 (Hepatitis C virus [6]): 9.71; microsomal CLint [8]: < 5.8 µL/min/mg
COC(=O)N[C@@H](C(=O)N1CCCC1C(=O)Nc1cccc(C#Cc2cccc(-c3cnc([C@@H]4CCCN4C(=O)[C@H](NC(=O)OC)c4ccccc4)[nH]3)c2)c1)c1ccccc1 (single isomer, unassigned) | 10.04 | > 1000 | > 11000 | 73.6 | microsomal CLint [8]: 9.4 µL/min/mg
COC(=O)N[C@H](C(=O)N1CCC[C@H]1C(=O)Nc1cccc(C#Cc2cccc(NC(=O)[C@@H]3CCCN3C(=O)[C@H](NC(=O)OC)c3ccccc3)c2)c1)C(C)C | 11.48 | 33600 |  | 18.8 | microsomal CLint [8]: 36.4 µL/min/mg
CCCCOC(=O)N[C@@H](CC(C)C)C(=O)N1CCC[C@H]1C(=O)Nc1cccc(C#Cc2cccc(NC(=O)[C@@H]3CCCN3C(=O)[C@H](CC(C)C)NC(=O)OCCCC)c2)c1 | < 6.00 | > 1000 |  |  | 
COC(=O)N[C@@H](C(=O)N1CCC[C@H]1C(=O)Nc1ccc(C#Cc2cccc(NC(=O)[C@@H]3CCCN3C(=O)[C@H](NC(=O)OC)c3ccccc3)c2)cc1)c1ccccc1 | 9.00 | > 1000 | > 995 |  | 
COC(=O)N[C@H](C(=O)N1CCC[C@H]1C(=O)Nc1cccc(C#Cc2cccc(NC(=O)[C@@H]3CCCN3C(=O)[C@@H](NC(=O)OC)C(C)C)c2)c1)C(C)C | 10.51 | > 100000 | > 3.25e+06 |  | pEC50 (Hepatitis C virus [4]): 5.67; pEC50 (Hepatitis C virus [5]): 6.63; pEC50 (Hepatitis C virus [6]): 6.55
COC(=O)N[C@H](CCSC)C(=O)N1CCC[C@H]1C(=O)Nc1cccc(C#Cc2cccc(NC(=O)[C@@H]3CCCN3C(=O)[C@@H](CCSC)NC(=O)OC)c2)c1 | 9.28 | > 1000 | > 1890 |  | 
COC(=O)N[C@@H](C(=O)N1CCC[C@H]1C(=O)Nc1cccc(C#Cc2ccc(-c3cnc([C@@H]4CCCN4C(=O)[C@H](NC(=O)OC)c4ccccc4)[nH]3)cc2)c1)c1ccccc1 | 11.94 | 26200 |  | > 120 | pEC50 (Hepatitis C virus [4]): 9.64; pEC50 (Hepatitis C virus [5]): 9.87; pEC50 (Hepatitis C virus [6]): 10.30; microsomal CLint [8]: < 5.8 µL/min/mg
COC(=O)N[C@H](C(=O)N1CCC[C@H]1c1ncc(-c2ccc(-c3ccc(-c4cnc([C@@H]5CCCN5C(=O)[C@@H](NC(=O)OC)C(C)C)[nH]4)cc3)cc2)[nH]1)C(C)C [DACLATASVIR] |  |  |  |  | pEC50 (Hepatitis C virus [4]): 8.08; pEC50 (Hepatitis C virus [9]): 9.87; pEC50 (Hepatitis C virus [5]): 10.24; pEC50 (Hepatitis C virus [6]): 10.67; pEC50 (Hepatitis C virus [10]): 10.59; pEC50 (Hepatitis C virus [11]): 8.47; Ratio EC50 [12]: 132
CCOC(=O)N[C@H](C(=O)N1CCC[C@H]1C(=O)Nc1cccc(C#Cc2cccc(NC(=O)[C@@H]3CCCN3C(=O)[C@@H](NC(=O)OCC)C(C)C)c2)c1)C(C)C | 7.92 | > 100000 | > 8230 |  | 
COC(=O)N[C@@H](C(=O)N1CCC[C@H]1C(=O)Nc1cccc(C#Cc2cccc(NC(=O)[C@@H]3CCCN3C(=O)[C@H](NC(=O)OC)C(C)C)c2)c1)C(C)C | 8.95 | > 1000 | > 891 |  | 
C[C@]12CC[C@H]3[C@@H](CCC4=CC(=O)CC[C@@]43C)[C@@H]1CC[C@@H]2O [TESTOSTERONE] |  |  |  | 7.4 | 
COC(=O)N[C@H](C(=O)N1CCC[C@H]1C(=O)Nc1cccc(C#Cc2cccc(NC(=O)[C@@H]3CCCN3C(=O)[C@@H](NC(=O)OC)c3ccccc3)c2)c1)c1ccccc1 | 11.36 | 24200 | 5.56e+06 | 75.9 | microsomal CLint [8]: 9.9 µL/min/mg
COC(=O)N[C@H](C(=O)N1CCC[C@H]1C(=O)Nc1ccc(C#Cc2cccc(NC(=O)[C@@H]3CCCN3C(=O)[C@@H](NC(=O)OC)C(C)C)c2)cc1)C(C)C | 9.75 | 41200 | 231000 |  | 
COC(=O)N[C@@H](C(=O)N1CCC[C@H]1C(=O)Nc1cccc(C#Cc2cccc(NC(=O)[C@@H]3CCCN3C(=O)[C@H](NC(=O)OC)c3ccccc3)c2)c1)c1ccccc1 | 11.91 | 43200 |  | 20 | pEC50 (Hepatitis C virus [4]): 10.25; pEC50 (Hepatitis C virus [9]): 10.59; pEC50 (Hepatitis C virus [5]): 9.91; pEC50 (Hepatitis C virus [6]): 10.79; pEC50 (Hepatitis C virus [10]): 11.58; pEC50 (Hepatitis C virus [11]): 9.77; Ratio EC50 [12]: 64.4; microsomal CLint [8]: 35.6 µL/min/mg; pEC50 (Hepatitis C virus [13]): 11.81; Activity (Hepatitis C virus [14]): Active
CCOC(=O)N[C@@H](CC(C)C)C(=O)N1CCC[C@H]1C(=O)Nc1cccc(C#Cc2cccc(NC(=O)[C@@H]3CCCN3C(=O)[C@H](CC(C)C)NC(=O)OCC)c2)c1 | 7.60 | 24200 | 968 |  | 
COC(=O)N[C@H](C(=O)N1CCC[C@H]1C(=O)Nc1ccc(C#Cc2ccc(NC(=O)[C@@H]3CCCN3C(=O)[C@@H](NC(=O)OC)C(C)C)cc2)cc1)C(C)C | 9.88 | > 1000 | > 7660 |  | pEC50 (Hepatitis C virus [4]): 6.39; pEC50 (Hepatitis C virus [5]): 7.22; pEC50 (Hepatitis C virus [6]): 6.35
CCSC[C@@H](NC(=O)OC)C(=O)N1CCC[C@H]1C(=O)Nc1cccc(C#Cc2cccc(NC(=O)[C@@H]3CCCN3C(=O)[C@@H](CSCC)NC(=O)OC)c2)c1 | 9.07 | 11200 | 13000 |  | 
COC(=O)N[C@H](CC(C)C)C(=O)N1CCC[C@H]1C(=O)Nc1cccc(C#Cc2cccc(NC(=O)[C@@H]3CCCN3C(=O)[C@@H](CC(C)C)NC(=O)OC)c2)c1 | 9.76 | 97800 | 560000 |  | 
